According to patent US20020155540A1, “Method to reduce transcriptional interference between tandem genes” (priority 2001, published 2002):

Tested on: ecdysone receptor (EcR) based, chemically inducible gene expression system
Experiment: Ecdysone receptor-based gene induction: upstream LUC activation and downstream RLUC expression in protoplasts
Assay type: cell-based, tobacco
Experimental: Protoplasts were prepared from actively growing tobacco BY-2 suspension cells (Japan Tobacco, Japan) and cultured essentially as described in Kikkawa et al. (9). One ml of protoplasts (5×10^5 to 1×10^6 cells) was mixed with plasmid DNA and electroporated at 0.56 K Volts for 80 μ seconds using an electroporation system with petripulser electrode (BTX). Equimolar plasmid DNA was added to transfections and the amount of DNA added varied from 23 to 30 μg depending on the plasmid size. To standardize the luciferase enzyme assays, 2 μg of the RLUC plasmid DNA were also added to each transfection as an internal control. Following the electroporation, protoplasts were diluted with 1 ml of 2×protoplast culture medium, aliquoted as two 1 ml cultures and incubated at 27° C. for 16-17 h. Each plasmid construct was tested in 5 to 7 independent transfection experiments.
Protoplast cultures were lysed by adding 250 μl of 5× passive lysis buffer (Promega) and shaking at room temperature for 10 minutes. […] The assay was performed with a luminometer plate reader (Dynex). The luciferase enzyme activities were measured and expressed as ratios of luciferase to Renilla luciferase activities in relative light units.
Induction of the Luc gene expression cassette was controlled by the addition of EcR ligand methoxyfenozide.
It contains a constitutively expressed chimeric GVE receptor gene (CsVMV promoter—sequences coding for GAL4 DNA binding domain, VP16 activation domain, and EcR ligand binding domain—NOS terminator) and an inducible promoter (five copies of GAL4 response element+minimal 35S promoter) to drive LUC gene expression (FIG. 1D). When the ligand methoxyfenozide (4) is applied to protoplasts, it binds to and activates the chimeric receptor. The activated receptor then induces LUC gene expression. This system was used to activate the upstream LUC gene, and the influence of LUC activation on the downstream constitutive RLUC gene expression was then measured.

## COc1cccc(C(=O)NN(C(=O)c2cc(C)cc(C)c2)C(C)(C)C)c1C [methoxyfenozide]
10 μM methoxyfenozide
  Luc Induced: 25,428 RLU
  RLuc Induced: 8832 RLU
After activation of upstream Luc gene with ligand
  reduction of downstream, constitutively expressed RLuc expression: 71%
